Our source for the IC50 values is patent US20160113895A1, “Novel Use of Adapalene in Treating Esophageal Cancer and Gastrointestinal Stromal Tumor” (Biodelight Biotech Inc., priority 2013, published 2016).

This assay relates to H1299. As to the kind of experiment: 3D cell proliferation assay (soft agar), H1299. The format is cell-based, human. The note with it: Homo sapiens, NCI-H1299, 3D soft agar. As for the experimental part: Drug nsl-8 was further subjected to a 3D cell proliferation assay for assessing its potential in inhibiting the growth of NSCLC tumors. The same four NSCLC cell lines used in 2D proliferation assays were grown in soft agar and the drug was added after the agar has solidified. The drug added cells were then incubated several days until colonies have formed in the solvent control. Subsequently, Alamar Blue which was a cell viability reagent was added and the corresponding fluorescence released was measured as an indirect quantification of colony growth in soft agar.
For each cell line, some 96 well culture plates were prepared. 100 μL of the soft agar bottom layer (0.6% final concentration in complete medium) was poured and left to solidify. 50 μL of the soft agar top layer (0.4% final concentration) containing the corresponding cells and cell number were then added on top, solidified and such 96 well plates were incubated overnight at 37° C. in 10% CO2. Next day, drugs were added at indicated final concentrations into the inner wells of the plate. Subsequently, the assays were incubated in cell culture incubators for the indicated period of time. Finally, the assays were developed using Alamar Blue and upon 3-5 h of incubation at 37 ° C. fluorescence intensity was determined (excitation: 560 nm, emission: 590 nm). […]

`COc1ccc(-c2ccc3cc(C(=O)O)ccc3c2)cc1C12CC3CC(CC(C3)C1)C2` [nsl-8, 6-[3-(1-adamantyl)-4-methoxyphenyl]-2-naphthalenecarboxylic acid]: the IC50 (in general, the midpoint of a concentration-inhibition curve) stood at 13 µM.
